Earlier results as cited in US20100197018A1, “USE OF SUBSTRATES AS PHARMACOLOGICAL CHAPERONES” (AMICUS THERAPEUTICS, INC., priority 2007, published 2010).
Read-outs that look alike come from different tables or passages of the source. Values belong to the molecule of their own block, whether it stands above or below them.

Assays:
iduronate-2-sulfatase = molecular target: T1, iduronate-2-sulfatase (Homo sapiens, UniProt P22304); conditions: for pH optimum: Table 4, cells marked * (not optimum pH) left out; for Relative catalytic efficiency: IdoA2S-anM = 1.0; for activity as % of maximal activity: at pH 6.3; for pH of maximal activity: text b65, highly sulfated tetrasaccharide substrates
T1 sequence (P22304 34-550): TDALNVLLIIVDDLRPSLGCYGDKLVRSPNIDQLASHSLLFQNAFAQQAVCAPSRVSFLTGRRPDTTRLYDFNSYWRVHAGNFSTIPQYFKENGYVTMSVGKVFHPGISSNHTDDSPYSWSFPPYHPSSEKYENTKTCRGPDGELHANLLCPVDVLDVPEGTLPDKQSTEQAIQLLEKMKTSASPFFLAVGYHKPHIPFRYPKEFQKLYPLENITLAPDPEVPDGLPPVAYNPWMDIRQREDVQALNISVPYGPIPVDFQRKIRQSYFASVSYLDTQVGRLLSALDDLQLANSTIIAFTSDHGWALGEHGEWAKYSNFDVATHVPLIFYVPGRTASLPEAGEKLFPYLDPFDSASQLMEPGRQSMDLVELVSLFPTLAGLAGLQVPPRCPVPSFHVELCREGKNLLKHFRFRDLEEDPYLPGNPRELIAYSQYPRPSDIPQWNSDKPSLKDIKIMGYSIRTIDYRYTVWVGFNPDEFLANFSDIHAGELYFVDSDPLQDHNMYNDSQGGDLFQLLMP

heparan-N-sulfatase = molecular target: T2, heparan-N-sulfatase (Homo sapiens, UniProt P51688); conditions: for Relative catalytic efficiency* / Km / kcat. (turnover number): 37°; for Relative catalytic efficiency*: GlcNS = 1.00; for pH optimum of the enzyme for the substrate: purified enzyme
T2 sequence (P51688 21-502): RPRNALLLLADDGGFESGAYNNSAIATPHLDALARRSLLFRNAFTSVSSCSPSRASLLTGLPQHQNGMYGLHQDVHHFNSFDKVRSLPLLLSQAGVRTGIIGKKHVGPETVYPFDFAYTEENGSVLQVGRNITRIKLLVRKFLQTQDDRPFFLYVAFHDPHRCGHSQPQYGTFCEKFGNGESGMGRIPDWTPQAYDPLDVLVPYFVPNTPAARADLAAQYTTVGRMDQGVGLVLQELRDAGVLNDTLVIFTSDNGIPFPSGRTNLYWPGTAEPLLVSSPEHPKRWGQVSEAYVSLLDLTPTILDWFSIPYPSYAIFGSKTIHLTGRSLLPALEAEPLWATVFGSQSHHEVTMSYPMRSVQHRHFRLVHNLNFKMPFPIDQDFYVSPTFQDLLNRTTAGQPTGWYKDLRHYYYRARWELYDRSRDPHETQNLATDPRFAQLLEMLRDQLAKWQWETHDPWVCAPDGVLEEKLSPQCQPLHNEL

[1] = molecular target: T3, N-acetyl-glucosamine-6-sulfate sulfatase (6S) Form A (Homo sapiens, UniProt P15586); conditions: for kcat. (turnover number) / Relative catalytic efficiency* / Km: Form A; for Relative catalytic efficiency*: kcat./Km calculated relative to a value for GlcNAc6S = 1; for Km: read-out: Km; for pH optimum: Table 6
T3 sequence (P15586 37-552): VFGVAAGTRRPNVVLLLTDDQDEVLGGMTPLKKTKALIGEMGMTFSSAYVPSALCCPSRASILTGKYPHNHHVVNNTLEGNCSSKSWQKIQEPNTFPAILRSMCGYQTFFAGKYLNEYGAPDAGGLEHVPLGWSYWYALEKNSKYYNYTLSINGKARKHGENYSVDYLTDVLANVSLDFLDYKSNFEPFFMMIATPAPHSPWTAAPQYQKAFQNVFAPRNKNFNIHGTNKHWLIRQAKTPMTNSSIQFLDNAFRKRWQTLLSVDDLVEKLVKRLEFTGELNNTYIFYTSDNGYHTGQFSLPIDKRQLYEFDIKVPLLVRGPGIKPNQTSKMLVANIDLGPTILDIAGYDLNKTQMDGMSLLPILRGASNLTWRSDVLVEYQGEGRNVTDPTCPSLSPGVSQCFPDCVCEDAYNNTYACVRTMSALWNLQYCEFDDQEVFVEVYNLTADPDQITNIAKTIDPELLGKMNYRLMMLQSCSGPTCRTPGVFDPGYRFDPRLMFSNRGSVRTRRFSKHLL

[2] = at the optimum pH of the substrate analog
[3] = pH: GlcNS-Ido 6.7, GlcNS-Ido2S 5.5, GlcNS-IdOA 5.6, GlcNS-IdoA-GlcNS-IdOA 5.6, GlcNS-IdoA2S-anM6S 3.6, GlcNS6S-Ido 4.2, GlcNS6S-Ido2S 3.8, GlcNS6S-IdOA 4.2
[4] = not optimum pH (*): IdoA2S-anM6S at pH 5.0, IdoA2S-anT4S at pH 4.0
[5] = pH 5.6 (second line of the substrate)

pH optimum (iduronate-2-sulfatase): 5.4
Km (iduronate-2-sulfatase; [2]): 19.2 µM
kcat. (turnover no.) (iduronate-2-sulfatase; [2]): 161 mol/min per mol of enzyme
Relative catalytic efficiency (iduronate-2-sulfatase; [2]): 1.0
Molecule: O=C(O)[C@@H]1O[C@@H](O[C@H]2[C@H](O)[C@@H](CO)O[C@@H]2CO)[C@H](OS(=O)(=O)O)[C@@H](O)[C@@H]1O [IdoA2S-anM, L-O-(α-iduronic acid 2-sulphate-(1-4)-D-β-2,5-anhydro-mannitol]

Relative catalytic efficiency* (heparan-N-sulfatase; pH (optimum)): 7.40
Km (heparan-N-sulfatase; [3]): 7.7 µM
kcat. (turnover number) (heparan-N-sulfatase; [3]): 0.0414 mol/min per mol of enzyme
pH optimum of the enzyme for the substrate (heparan-N-sulfatase): 6.7
Molecule: O=C[C@H](O)[C@@H](O)[C@H](O[C@H]1O[C@H](CO)[C@@H](O)[C@H](O)[C@H]1NS(=O)(=O)O)[C@@H](O)CO [GlcNS-Ido, O-(α-2-sulphaminoglucosamine)-(1-4)-L-idose)]

Relative catalytic efficiency* (heparan-N-sulfatase; pH (optimum)): 6927
Km (heparan-N-sulfatase; [3]): 10.3 µM
kcat. (turnover number) (heparan-N-sulfatase; [3]): 52 mol/min per mol of enzyme
pH optimum of the enzyme for the substrate (heparan-N-sulfatase): 5.5
Molecule: O=C(O)[C@H](O)[C@@H](O[C@H]1O[C@H](CO)[C@@H](O[C@@H]2O[C@@H](C(=O)O)[C@@H](O[C@H]3O[C@H](CO)[C@@H](O)[C@H](O)[C@H]3NS(=O)(=O)O)[C@H](O)[C@H]2O)[C@H](O)[C@H]1NS(=O)(=O)O)[C@H](O)[C@@H](O)CO [GlcNS-IdoA-GlcNS-IdOA, O-(α-2-sulphaminoglucosamine)-(1-4)-L-O-(α-iduronic acid)-(1-4)-O-D-(α-2-sulphaminoglucosamine)-(1-3)-L-idonic acid]

Molecule: O=P(O)(O)O [sodium phosphate]
effect of salt on activity of the enzyme against the substrates (iduronate-2-sulfatase): inhibitory

pH range of activity (iduronate-2-sulfatase): 4.2-6.0
pH optimum (iduronate-2-sulfatase): 5.4
activity as % of maximal activity (iduronate-2-sulfatase): ~12%
Km (iduronate-2-sulfatase; [2]): 2.5 µM
kcat. (turnover no.) (iduronate-2-sulfatase; [2]): 1925 mol/min per mol of enzyme
Relative catalytic efficiency (iduronate-2-sulfatase; [2]): 91.7
pH of maximal activity (iduronate-2-sulfatase): 5.1
Molecule: L-O-(α-iduronic acid 2 sulphate)-D-β-α-glucosamine 6-sulphate)-(1-4)-L-O-(α-iduronic acid 2-sulphate)-(1-4)-D-O-anhydro-mannitol 6-sulphate [IdoA2S-GlcNH6S-IdoA2S-anM6S]

Molecule: [Cl-].[Na+] [sodium chloride]
effect of salt on activity of the enzyme against the substrates (iduronate-2-sulfatase): inhibitory

Molecule: O=S(=O)([O-])[O-].[Na+].[Na+] [sodium sulfate]
effect of salt on activity of the enzyme against the substrates (iduronate-2-sulfatase): inhibitory

pH optimum (iduronate-2-sulfatase): 4.0
Km (iduronate-2-sulfatase; [2]): 4 µM
kcat. (turnover no.) (iduronate-2-sulfatase; [2]): 2114 mol/min per mol of enzyme
Relative catalytic efficiency (iduronate-2-sulfatase; [2]): 63.0
increase in binding affinity (Km) (iduronate-2-sulfatase; compared with IdoA2S-anM): 5 fold
increase in turnover (Kcat) (iduronate-2-sulfatase; compared with IdoA2S-anM): 13 fold
increase in catalytic activity (iduronate-2-sulfatase; compared with IdoA2S-anM (addition of a 6-sulfate ester group)): 63 fold
Km (iduronate-2-sulfatase; [4]): 2.5 µM
kcat. (turnover no.) (iduronate-2-sulfatase; [4]): 905 mol/min per mol of enzyme
Relative catalytic efficiency (iduronate-2-sulfatase; [4]): 43.1
Molecule: O=C(O)[C@@H]1O[C@@H](O[C@H]2[C@H](O)[C@@H](CO)O[C@@H]2COS(=O)(=O)O)[C@H](OS(=O)(=O)O)[C@@H](O)[C@@H]1O [IdoA2S-anM6S, L-O-(α-iduronic acid 2-sulphate)-(1-4)-D-β-2,5-anhydro-mannitol 6-sulphate]

Km (heparan-N-sulfatase; [5]): 5.3 µM
kcat. (turnover number) (heparan-N-sulfatase; [5]): 117 mol/min per mol of enzyme
Relative catalytic efficiency* (heparan-N-sulfatase; [5]): 30237
Relative catalytic efficiency* (heparan-N-sulfatase; pH (optimum)): 67193
Km (heparan-N-sulfatase; [3]): 3.8 µM
kcat. (turnover number) (heparan-N-sulfatase; [3]): 186 mol/min per mol of enzyme
Molecule: O=C(O)[C@@H]1O[C@@H](O[C@H]2[C@H](O)[C@@H](CO)O[C@@H]2COS(=O)(=O)O)[C@H](OS(=O)(=O)O)[C@@H](O)[C@@H]1O[C@H]1O[C@H](CO)[C@@H](O)[C@H](O)[C@H]1NS(=O)(=O)O [GlcNS-IdoA2S-anM6S, O-α-2-sulphaminoglucosamine)-(1-4) O-L-(α-iduronic-acid 2-sulphate)-(1-4)-O-D-(2,5)-anhydro-mannitol 6-sulphate]

Molecule: [Cl-].[Cl-].[Mg+2] [magnesium chloride]
effect of salt on activity of the enzyme against the substrates (iduronate-2-sulfatase): no effect or increase the activity

Molecule: L-O-(α-iduronic acid 2 sulphate)-(1-4)-D-β-(α-2-sulphaminoglucosamine)-(1-4)-O-(β-D-glucuronic or α-L-iduronic acid)-(1-4) D-O(α-N-acetylglucosamine-(1-3)-D-O-]-gulonic acid [IdoA2S-GlcNS-UA-GlcNAc-GlcOA]
pH optimum (iduronate-2-sulfatase): 5.4
Km (iduronate-2-sulfatase; [2]): 1.9 µM
kcat. (turnover no.) (iduronate-2-sulfatase; [2]): 756 mol/min per mol of enzyme
Relative catalytic efficiency (iduronate-2-sulfatase; [2]): 47.5

kcat. (turnover number) [1]: 7.08 mol/min per mol of enzyme
Relative catalytic efficiency* [1]: 402
Km [1]: 0.76 µM
pH optimum [1]: 4.3
Molecule: CC(=O)N[C@H]1[C@@H](O[C@H]2[C@H](O)[C@@H](OS(=O)(=O)O)[C@H](O[C@H]3[C@H](O)[C@@H](CO)O[C@@H]3COS(=O)(=O)O)O[C@H]2C(=O)O)O[C@H](COS(=O)(=O)O)[C@@H](O)[C@@H]1O [GlcNAc6S-IdoA2S-anM6S, O-(α-N-acetylglucosamine 6-sulphate)-(1-4)-L-O-(α-iduronic acid 2-sulphate)-(1-4)-D-O-2,5-anhydro-mannitol 6 sulphate]

Molecule: manganese chloride
effect of salt on activity of the enzyme against the substrates (iduronate-2-sulfatase): no effect or increase the activity

kcat. (turnover number) [1]: 0.11 mol/min per mol of enzyme
Relative catalytic efficiency* [1]: 14
Km [1]: 0.35 µM
pH optimum [1]: 4.3
Molecule: N[C@H]1[C@@H](O[C@H]2[C@H](O)[C@@H](OS(=O)(=O)O)[C@H](O[C@H]3[C@H](O)[C@@H](CO)O[C@@H]3COS(=O)(=O)O)O[C@H]2C(=O)O)O[C@H](COS(=O)(=O)O)[C@@H](O)[C@@H]1O [GlcNH6S-IdoA2S-anM6S, O-α-glucosamine 6-sulphate)-(1-4)-L-O-(α-iduronic acid 2-sulphate)-(1-4)-D-β-2,5-anhydro-mannitol 6-sulphate]

pH range of activity (iduronate-2-sulfatase): 5.0-6.5
pH optimum (iduronate-2-sulfatase): 5.7
activity as % of maximal activity (iduronate-2-sulfatase): ~90%
Km (iduronate-2-sulfatase; [2]): 1.4 µM
kcat. (turnover no.) (iduronate-2-sulfatase; [2]): 2177 mol/min per mol of enzyme
Relative catalytic efficiency (iduronate-2-sulfatase; [2]): 186.7
pH of maximal activity (iduronate-2-sulfatase): 5.7
Molecule: O-(α-L-iduronic acid 2-sulphate)-(1-4)-D-β-(α-2-sulphaminoglucosamine 6 sulphate)-(1-4)-L-O-(α-iduronic acid 2-sulphate)-(1-4)-D-O-2,5-anhydro[1-^3H]mannitol 6-sulphate [IdoA2S-GlcNS6S-IdoA2S-anM6S]

pH optimum (iduronate-2-sulfatase): 5.0
Km (iduronate-2-sulfatase; [2]): 0.7 µM
kcat. (turnover no.) (iduronate-2-sulfatase; [2]): 507 mol/min per mol of enzyme
Relative catalytic efficiency (iduronate-2-sulfatase; [2]): 86.2
Km (iduronate-2-sulfatase; [4]): 1.1 µM
kcat. (turnover no.) (iduronate-2-sulfatase; [4]): 270 mol/min per mol of enzyme
Relative catalytic efficiency (iduronate-2-sulfatase; [4]): 29.3
Molecule: O-(α-L-idopyranosyluronic acid 2-sulfate)-(1-3)-2,5-anhydro-D-talitol 4-sulfate [IdoA2S-anT4S]
